From patent US10889555B2, “Sulfonamide compound or salt thereof” (Taiho Pharmaceutical Co., Ltd., priority 2016, dated 2021) come the findings set out here.

pIC50: −log10 of the molar value.

The assay deals with HCC 1806 cells. Description: Cell proliferation inhibitory effect on human breast cancer cell line (crystal violet, 72 hours). The assay is classed as cell-based. As to conditions: Homo sapiens, HCC1806, 72 h, read-out: Cell growth suppression IC50. Here is the method: Human derived breast cancer cell line HCC 1806 cells were daily passaged at a cell density not exceeding 80% in ATCC recommended Roswell Park Memorial Institute medium (RPMI-1640) containing 10% fetal bovine serum (FBS). In order to start the test of cell proliferation inhibitory activity, HCC 1806 cells were suspended in the above medium, after seeing at 180 μL in each well of a 96-well flat bottom plate so that the number of cells per well was 2,000, the cells were cultured at 37° C. for 1 day in an incubator containing 5% carbon dioxide gas. On the next day, the test compound was dissolved in DMSO, and 20 μL of a drug additive solution diluted serially with distilled water to 10 times of the final concentration was added to each well of the culture plate of the cells, and the cells were cultured at 37° C. for 72 hours in an incubator containing 5% carbon dioxide gas. After culturing for 72 hours, 20 μL of glutaraldehyde was added to each well and allowed to stand for 30 minutes, then the plate was washed 10 times with water and was dried. 100 μL of a stain solution (0.05% crystal violet in a 20% methanol solution) was added to each well and allowed to stand for 30 minutes, then the plate was washed 10 times with water and was dried. 100 μL of an extract solution (0.1 N NaH2PO4: 100% ethanol=1:1) was added to each well and mixed, and the mixture was measured at a wavelength of 540 nm using a plate reader (MTP-450 manufactured by Corona Electric Co., Ltd.). The growth inhibition rate was calculated from the following formula, and the concentration (IC50 (μM)) of a test compound inhibiting 50% was determined. Growth inhibition rate (%)={(C−B)−(T−B)}/(C−B)×100
T: Absorbance of well to which test compound was added
C: Absorbance of wells to which no test compound was added
B: Absorbance of wells to which no cell suspension was added
For `Cc1cc(F)c(F)c([C@@H](C)[C@H](NS(=O)(=O)c2ccc(Cl)cc2C(N)=O)c2n[nH]c(=O)o2)c1C` [Example 13, 5-chloro-2-(N-((1S,2R)-2-(2,3-difluoro-5,6-dimethylphenyl)-1-(5-oxo-4,5-dihydro-1,3,4-oxadiazol-2-yl)propyl)sulfamoyl)benzamide], the pIC50 is 6.51.

As for `C[C@H](c1c(F)ccc2ccccc12)[C@H](NS(=O)(=O)c1ccc(Br)cc1C(N)=O)c1n[nH]c(=O)o1` [Example 15, 5-bromo-2-(N-((1S,2R)-2-(2-fluoronaphthalen-1-yl)-1-(5-oxo-4,5-dihydro-1,3,4-oxadiazol-2-yl)propyl)sulfamoyl)benzamide], the pIC50 is 6.40.

Turning to `CCc1ccc(S(=O)(=O)N[C@H](c2n[nH]c(=O)o2)[C@H](C)c2c(F)ccc(C)c2C)c(C(N)=O)c1` [Example 18, 5-Ethyl-2-(N-((1S,2R)-2-(6-fluoro-2,3-dimethylphenyl)-1-(5-oxo-4,5-dihydro-1,3,4-oxadiazol-2-yl)propyl)sulfamoyl)benzamide], the pIC50 was 6.24. In the case of `Cc1ccc(F)c([C@@H](C)[C@H](NS(=O)(=O)c2ccc(Cl)nc2C(N)=O)c2n[nH]c(=O)o2)c1C` [Example 19, 6-Chloro-3-(N-((1S,2R)-2-(6-fluoro-2,3-dimethylphenyl)-1-(5-oxo-4,5-dihydro-1,3,4-oxadiazol-2-yl)propyl)sulfamoyl)picolinamide], the pIC50 was 6.03. For `Cc1c(Cl)ccc(F)c1[C@@H](C)[C@H](NS(=O)(=O)c1ccc(Br)cc1C(N)=O)c1n[nH]c(=O)o1` [Example 25, 5-bromo-2-(N-((1S,2R)-2-(3-chloro-6-fluoro 2 methylphenyl)-1-(5-oxo-4,5-dihydro-1,3,4-oxadiazol-2-yl)propyl)sulfamoyl)benzamide] the value was 6.23; for `Cc1c(C2CC2)ccc(F)c1[C@@H](C)[C@H](NS(=O)(=O)c1ccc(Cl)cc1C(N)=O)c1n[nH]c(=O)o1` [Example 26, 5-chloro-2-(N-((1S,2R)-2-(3-cyclopropy1-6-fluoro-2-methylphenyl)-1-(5-oxo-4,5-dihydro-1,3,4-oxadiazol-2-yl)propyl)sulfamoyl)benzamide], 6.01. The same measure for `Cc1c(Br)ccc(F)c1[C@@H](C)[C@H](NS(=O)(=O)c1ccc(Cl)cc1C(N)=O)c1n[nH]c(=O)o1` [Example 30, 2-(N-((1S,2R)-2-(3-bromo-6-fluoro-2-methylphenyl)-1-(5-oxo-4,5-dihydro-1,3,4-oxadiazol-2-yl)propyl)sulfamoyl)-5-chlorobenzamide]: 6.10. Consider `Cc1c(Br)ccc(F)c1[C@@H](C)[C@H](NS(=O)(=O)c1ccc(Br)cc1C(N)=O)c1n[nH]c(=O)o1` [Example 35, 5-bromo-2-(N-((1S,2R)-2-(3-bromo-6-fluoro-2-methylphenyl)-1-(5-oxo-4,5-dihydro-1,3,4-oxadiazol-2-yl)propyl)sulfamoyl)benzamide], for which the pIC50 is 6.17. For `Cc1ccc(F)c([C@@H](C)[C@H](NS(=O)(=O)c2cc(C(=O)N(C)C)ccc2C(N)=O)c2n[nH]c(=O)o2)c1C` [Example 37, 3-(N-((1S,2R)-2-(6-fluoro-2,3-dimethylphenyl)-1-(5-oxo-4,5-dihydro-1,3,4-oxadiazol-2-yl)propyl)sulfamoyl)-N1,N1-dimethylterephthalamide] the value was 6.09; for `Cc1ccc(F)c([C@@H](C)[C@H](NS(=O)(=O)c2cc(C(=O)N(C)C)c(Cl)cc2C(N)=O)c2n[nH]c(=O)o2)c1C` [Example 39, 2-chloro-5-(N-((1S,2R)-2-(6-fluoro-2,3-dimethylphenyl)-1-(5-oxo-4,5-dihydro-1,3,4-oxadiazol-2-yl)propyl)sulfamoyl)-N1,N1-dimethyl terephthalamide], 6.64. The same measure for `Cc1ccc(F)c([C@@H](C)[C@H](NS(=O)(=O)c2cnc(Cl)cc2C(N)=O)c2n[nH]c(=O)o2)c1C` [Example 40, 2-chloro-5-(N-((1S,2R)-2-(6-fluoro-2,3-dimethylphenyl)-1-(5-oxo-4,5-dihydro-1,3,4-oxadiazol-2-yl)propyl)sulfamoyl)isonicotinamide]: 6.23; for `Cc1ccc(F)c([C@@H](C)[C@H](NS(=O)(=O)c2ccc(C(F)(F)F)cc2C(N)=O)c2n[nH]c(=O)o2)c1C` [Example 41, 2-(N-((1S,2R)-2-(6-fluoro-2,3-dimethylphenyl)-1-(5-oxo-4,5 dihydro-1,3,4-oxadiazol-2-yl)propyl)sulfamoyl)-5-(trifluoromethyl)benzamide]: 6.40. The same measure for `[2H]C([2H])([2H])[C@H](c1c(F)ccc(C)c1C)[C@H](NS(=O)(=O)c1ccc(Cl)cc1C(N)=O)c1n[nH]c(=O)o1` [Example 43, 5-chloro-2-[[(1S,2R)-3,3,3-trideuterio-2-(6-fluoro-2,3-dimethylphenyl)-1-(2-oxo-3H-1,3,4-oxadiazol-5-yl)propyl]sulfamoyl]benzamide]: 6.55; for `COc1cc(Cl)ccc1S(=O)(=O)N[C@H](c1n[nH]c(=O)o1)[C@H](C)c1cccc2cccc(C)c12` [Example 71, 4-chloro-2-methoxy-N-((1S,2R)-2-(8-methylnaphthalen-1-yl)-1-(5-oxo-4,5-dihydro-1,3,4-oxadiazol-2-yl)propyl)benzenesulfonamide]: 6.10; for `COc1cc(Cl)ccc1S(=O)(=O)N[C@H](c1n[nH]c(=O)o1)[C@H](C)c1c(F)ccc2ccccc12` [Example 76, 4-chloro-N-((1S,2R)-2-(2-fluoronaphthalen-1-yl)-1-(5-oxo-4,5-dihydro-1,3,4-oxadiazol-2-yl)propyl)-2-methoxybenzenesulfonamide]: 6.36. Regarding `COc1cc(Cl)ccc1S(=O)(=O)N[C@H](c1n[nH]c(=O)o1)[C@H](C)c1c(F)ccc(C)c1C` [Example 83, 4-chloro-N-((1S,2R)-2-(6-fluoro-2,3-dimethylphenyl)-1-(5-oxo-4,5-dihydro-1,3,4-oxadiazol-2-yl)propyl)-2-methoxybenzenesulfonamide], the pIC50 is 6.30.

Take `Cc1ccc(F)c([C@@H](C)[C@H](NS(=O)(=O)c2ccc(Cl)cc2-c2ccno2)c2n[nH]c(=O)o2)c1C` [Example 91, 4-chloro-N-((1S,2R)-2-(6-fluoro-2,3-dimethylphenyl)-1-(5-oxo-4,5-dihydro-1,3,4-oxadiazol-2-yl)propyl)-2-(isoxazol-5-yl)benzenesulfonamide]: the pIC50 was 6.01. The same measure for `Cc1ccc(F)c([C@@H](C)[C@H](NS(=O)(=O)c2ccc(Cl)c3c2OCC(=O)N3C)c2n[nH]c(=O)o2)c1C` [Example 93, 5-chloro-N-((1S,2R)-2-(6-fluoro-2,3-dimethylphenyl)-1-(5-oxo-4,5-dihydro-1,3,4-oxadiazol-2-yl)propyl)-4-methyl-3-oxo-3,4-dihydro-2H-benzo[b][1,4]oxazine-8-sulfonamide]: 6.55; for `CCN1CCOc2c(S(=O)(=O)N[C@H](c3n[nH]c(=O)o3)[C@H](C)c3c(F)ccc(C)c3C)ccc(Cl)c21` [Example 94, 5-chloro-4-ethyl-N-((1S,2R)-2-(6-fluoro-2,3-dimethylphenyl)-1-(5-oxo-4,5-dihydro-1,3,4-oxadiazol-2-yl)propyl)-3,4-dihydro-2H-benzo [b][1,4]oxazine-8-sulfonamide]: 6.32; for `CC(=O)OC1(C)CCOc2c(S(=O)(=O)N[C@H](c3n[nH]c(=O)o3)[C@H](C)c3c(F)ccc(C)c3C)ccc(Cl)c21` (stereo partly drawn) [Example 95, 5-chloro-8-(N-((1S,2R)-2-(6-fluoro-2,3-dimethylphenyl)-1-(5-oxo-4,5-dihydro-1,3,4-oxadiazol-2-yl)propyl)sulfamoyl)-4-methylchroman-4-yl acetate]: 6.85. Regarding `CCc1ccc(F)c([C@@H](C)[C@H](NS(=O)(=O)c2ccc(Br)cc2C(N)=O)c2n[nH]c(=O)o2)c1C` [Example 96, 5-bromo-2-(N-((1S,2R)-2-(3-ethyl-6-fluoro-2-methylphenyl)-1-(5-oxo-4,5-dihydro-1,3,4-oxadiazol-2-yl)propyl)sulfamoyl)benzamide], the pIC50 is 6.02. Take `CC(=O)OC1(C)CCOc2c(S(=O)(=O)N[C@H](c3n[nH]c(=O)o3)[C@H](C)c3c(F)ccc(Cl)c3C)ccc(Cl)c21` (stereo partly drawn) [Example 100, 5-chloro-8-(N-((1S,2R)-2-(3-chloro-6-fluoro-2-methylphenyl)-1-(5-oxo-4,5-dihydro-1,3,4-oxadiazol-2-yl)propyl)sulfamoyl)-4-methylchroman-4-yl acetate]: the pIC50 is 6.41. Consider `Cc1ccc(F)c([C@@H](C)[C@H](NS(=O)(=O)c2ccc(Cl)c3c2OCC(=O)N3CC(F)F)c2n[nH]c(=O)o2)c1C` [Example 101, 5-chloro-4-(2,2-difluoroethyl)-N-((1S,2R)-2-(6-fluoro-2,3-dimethylphenyl)-1-(5-oxo-4,5-dihydro-1,3,4-oxadiazol-2-yl)propyl)-3-oxo-3,4-dihydro-2H-benzo[b][1,4]oxazine-8-sulfonamide], for which the pIC50 was 6.09.

The pIC50 is the negative decadic logarithm of the IC50, by convention in mol/L.
